Assays:
[1] = target: T1, Lyn(h) (Homo sapiens, UniProt P07948); experiment: Kinase selectivity panel: Lyn; type: biochemical
T1 construct: purchased Eurofins (Millipore) KinaseProfiler Diversity Panel
Procedure: (§1) To confirm the anti-inflammatory effect was caused by RIPK2 inhibition, compound 14 was subjected to kinase selectivity evaluation (Figure 4). Kinase selectivity profile of compound 14 as shown by the diversity kinase Panel screen against 70 kinases assayed at 1 µM. Among all tested 70 kinases, only five were inhibited over 90% at 1 µM including Fyn, Lyn, BTK, Abl and RIPK2. Three kinases including KDR, CDK9 and LOK were inhibited 50–90% at 1 µM.

[2] = target: T2, CDK2/cyclinA(h) (Homo sapiens, UniProt P24941); experiment: Kinase selectivity panel: CDK2/cyclinA; type: biochemical
T2 construct: purchased Eurofins (Millipore) KinaseProfiler Diversity Panel
Procedure: as §1

[3] = target: T3, SAPK2a(h) (Homo sapiens, UniProt Q16539); experiment: Kinase selectivity panel: SAPK2a; type: biochemical
T3 construct: purchased Eurofins (Millipore) KinaseProfiler Diversity Panel
Procedure: as §1

[4] = target: T4, CHK1(h) (Homo sapiens, UniProt O14757); experiment: Kinase selectivity panel: CHK1; type: biochemical
T4 construct: purchased Eurofins (Millipore) KinaseProfiler Diversity Panel
Procedure: as §1

[5] = target: T5, ASK1(h) (Homo sapiens, UniProt Q99683); experiment: Kinase selectivity panel: ASK1; type: biochemical
T5 construct: purchased Eurofins (Millipore) KinaseProfiler Diversity Panel
Procedure: as §1

[6] = target: T6, PAK2(h) (Homo sapiens, UniProt Q13177); experiment: Kinase selectivity panel: PAK2; type: biochemical; conditions: 1 µM
T6 construct: purchased Eurofins (Millipore) KinaseProfiler Diversity Panel
Procedure: as §1

[7] = target: T7, JAK2(h) (Homo sapiens, UniProt O60674); experiment: Kinase selectivity panel: JAK2; type: biochemical; conditions: 1 µM
T7 construct: purchased Eurofins (Millipore) KinaseProfiler Diversity Panel
Procedure: as §1

[8] = target: T8, MSK2(h) (Homo sapiens, UniProt O75676); experiment: Kinase selectivity panel: MSK2; type: biochemical
T8 construct: purchased Eurofins (Millipore) KinaseProfiler Diversity Panel
Procedure: as §1

[9] = target: T9, Rse(h) (Homo sapiens, UniProt Q06418); experiment: Kinase selectivity panel: Rse; type: biochemical; conditions: 1 µM
T9 construct: purchased Eurofins (Millipore) KinaseProfiler Diversity Panel
Procedure: as §1

[10] = target: T10, RIPK1 (Homo sapiens, UniProt Q13546); experiment: RIPK1 inhibition rate at 1 µM; type: biochemical
T10 sequence (Q13546 1-671): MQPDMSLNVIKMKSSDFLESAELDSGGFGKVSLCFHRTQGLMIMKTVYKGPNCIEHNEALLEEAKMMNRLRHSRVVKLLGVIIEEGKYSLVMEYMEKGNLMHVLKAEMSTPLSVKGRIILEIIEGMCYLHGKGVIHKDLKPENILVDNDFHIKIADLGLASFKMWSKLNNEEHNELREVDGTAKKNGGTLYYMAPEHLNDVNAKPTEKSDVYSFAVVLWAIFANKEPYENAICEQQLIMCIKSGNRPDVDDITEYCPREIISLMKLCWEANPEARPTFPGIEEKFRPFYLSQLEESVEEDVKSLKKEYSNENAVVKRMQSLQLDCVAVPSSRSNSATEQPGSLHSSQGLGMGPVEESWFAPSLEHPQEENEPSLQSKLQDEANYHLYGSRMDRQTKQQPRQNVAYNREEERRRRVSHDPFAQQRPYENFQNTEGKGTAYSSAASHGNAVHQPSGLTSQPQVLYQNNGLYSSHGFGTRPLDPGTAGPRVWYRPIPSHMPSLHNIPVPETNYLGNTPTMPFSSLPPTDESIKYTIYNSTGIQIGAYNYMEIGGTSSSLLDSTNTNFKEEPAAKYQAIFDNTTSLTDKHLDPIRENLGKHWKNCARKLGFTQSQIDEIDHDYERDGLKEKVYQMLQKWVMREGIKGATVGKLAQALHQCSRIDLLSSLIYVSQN
Procedure: Table 4. Selectivity, ClogP and LipE of compound 14, 15, 21, 32, 36. | column: RIPK1 IR@1µM (%)

[11] = target: T11, EphB4(h) (Homo sapiens, UniProt P54760); experiment: Kinase selectivity panel: EphB4; type: biochemical
T11 construct: purchased Eurofins (Millipore) KinaseProfiler Diversity Panel
Procedure: as §1

[12] = target: T12, PI3 Kinase (p110a/p85a)(h) (Homo sapiens, UniProt P42336); experiment: Kinase selectivity panel: PI3 Kinase (p110a/p85a); type: biochemical; conditions: 1 µM
T12 construct: purchased Eurofins (Millipore) KinaseProfiler Diversity Panel
Procedure: as §1

[13] = target: T13, CK1γ1(h) (Homo sapiens, UniProt Q9HCP0); experiment: Kinase selectivity panel: CK1γ1; type: biochemical; conditions: 1 µM
T13 construct: purchased Eurofins (Millipore) KinaseProfiler Diversity Panel
Procedure: as §1

[14] = target: T14, BTK(h) (Homo sapiens, UniProt Q06187); experiment: Kinase selectivity panel: BTK; type: biochemical
T14 construct: purchased Eurofins (Millipore) KinaseProfiler Diversity Panel
Procedure: as §1

[15] = target: T15, Rsk1(h) (Homo sapiens, UniProt Q15418); experiment: Kinase selectivity panel: Rsk1; type: biochemical; conditions: 1 µM
T15 construct: purchased Eurofins (Millipore) KinaseProfiler Diversity Panel
Procedure: as §1

[16] = target: T16, mTOR(h) (Homo sapiens, UniProt P42345); experiment: Kinase selectivity panel: mTOR; type: biochemical
T16 construct: purchased Eurofins (Millipore) KinaseProfiler Diversity Panel
Procedure: as §1

[17] = target: T17, Abl(h) (Homo sapiens, UniProt P00519); experiment: Kinase selectivity panel: Abl; type: biochemical
T17 construct: purchased Eurofins (Millipore) KinaseProfiler Diversity Panel
Procedure: as §1

[18] = target: T18, IKKε(h) (Homo sapiens, UniProt Q14164); experiment: Kinase selectivity panel: IKKε; type: biochemical
T18 construct: purchased Eurofins (Millipore) KinaseProfiler Diversity Panel
Procedure: as §1

[19] = target: T19, TAK1(h) (Homo sapiens, UniProt O43318); experiment: Kinase selectivity panel: TAK1; type: biochemical; conditions: 1 µM
T19 construct: purchased Eurofins (Millipore) KinaseProfiler Diversity Panel
Procedure: as §1

[20] = target: T20, MLK1(h) (Homo sapiens, UniProt P80192); experiment: Kinase selectivity panel: MLK1; type: biochemical
T20 construct: purchased Eurofins (Millipore) KinaseProfiler Diversity Panel
Procedure: as §1

[21] = target: T21, MST1(h) (Homo sapiens, UniProt Q13043); experiment: Kinase selectivity panel: MST1; type: biochemical
T21 construct: purchased Eurofins (Millipore) KinaseProfiler Diversity Panel
Procedure: as §1

[22] = target: T22, Mnk2(h) (Homo sapiens, UniProt Q9HBH9); experiment: Kinase selectivity panel: Mnk2; type: biochemical
T22 construct: purchased Eurofins (Millipore) KinaseProfiler Diversity Panel
Procedure: as §1

[23] = target: T23, p70S6K(h) (Homo sapiens, UniProt P23443); experiment: Kinase selectivity panel: p70S6K; type: biochemical
T23 construct: purchased Eurofins (Millipore) KinaseProfiler Diversity Panel
Procedure: as §1

[24] = target: T24, TBK1(h) (Homo sapiens, UniProt Q9UHD2); experiment: Kinase selectivity panel: TBK1; type: biochemical
T24 construct: purchased Eurofins (Millipore) KinaseProfiler Diversity Panel
Procedure: as §1

[25] = target: T25, CDK6/cyclinD3(h) (Homo sapiens, UniProt Q00534); experiment: Kinase selectivity panel: CDK6/cyclinD3; type: biochemical
T25 construct: purchased Eurofins (Millipore) KinaseProfiler Diversity Panel
Procedure: as §1

[26] = target: T26, AO oxidase (Homo sapiens, UniProt Q06278); experiment: AO oxidative metabolism in human liver cytosol; type: in vitro ADME; conditions: human liver cytosol incubation; inhibitors raloxifene and menadione
T26 construct: could undergo mono oxidative metabolism in the human liver cytosol incubation system; from tissue; host or cells: human liver cytosol
Procedure: However, we have done experiment on AO oxidative metabolism of compound 14 and P5. Both compound 14 and P5 could undergo mono oxidative metabolism in the human liver cytosol incubation system.

[27] = target: T27, KDR(h) (Homo sapiens, UniProt P35968); experiment: Kinase selectivity panel: KDR; type: biochemical; set-up: KDR(h), 14 @ 1 µM: unit not given here
T27 construct: purchased Eurofins (Millipore) KinaseProfiler Diversity Panel
Procedure: as §1

[28] = target: T28, CDK1/cyclinB(h) (Homo sapiens, UniProt P06493); experiment: Kinase selectivity panel: CDK1/cyclinB; type: biochemical
T28 construct: purchased Eurofins (Millipore) KinaseProfiler Diversity Panel
Procedure: as §1

T14 sequence (Q06187 whole entry): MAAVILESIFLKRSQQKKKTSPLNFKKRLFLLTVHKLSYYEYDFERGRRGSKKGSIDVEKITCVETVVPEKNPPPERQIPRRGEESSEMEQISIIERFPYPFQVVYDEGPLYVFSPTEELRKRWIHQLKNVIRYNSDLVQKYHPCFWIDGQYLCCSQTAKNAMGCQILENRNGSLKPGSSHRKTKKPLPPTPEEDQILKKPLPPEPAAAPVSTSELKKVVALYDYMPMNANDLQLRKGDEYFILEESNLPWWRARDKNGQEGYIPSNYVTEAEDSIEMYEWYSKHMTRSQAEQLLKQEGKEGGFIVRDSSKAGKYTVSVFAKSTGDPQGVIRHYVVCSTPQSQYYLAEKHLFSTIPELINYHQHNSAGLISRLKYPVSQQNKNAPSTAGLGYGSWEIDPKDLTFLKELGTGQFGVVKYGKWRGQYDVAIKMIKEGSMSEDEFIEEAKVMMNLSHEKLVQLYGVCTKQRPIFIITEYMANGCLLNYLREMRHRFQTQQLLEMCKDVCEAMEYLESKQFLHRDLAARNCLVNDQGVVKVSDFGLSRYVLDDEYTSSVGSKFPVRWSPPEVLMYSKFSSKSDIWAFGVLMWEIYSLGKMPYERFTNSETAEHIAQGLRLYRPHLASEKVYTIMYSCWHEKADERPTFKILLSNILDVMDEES
T17 sequence (P00519 whole entry): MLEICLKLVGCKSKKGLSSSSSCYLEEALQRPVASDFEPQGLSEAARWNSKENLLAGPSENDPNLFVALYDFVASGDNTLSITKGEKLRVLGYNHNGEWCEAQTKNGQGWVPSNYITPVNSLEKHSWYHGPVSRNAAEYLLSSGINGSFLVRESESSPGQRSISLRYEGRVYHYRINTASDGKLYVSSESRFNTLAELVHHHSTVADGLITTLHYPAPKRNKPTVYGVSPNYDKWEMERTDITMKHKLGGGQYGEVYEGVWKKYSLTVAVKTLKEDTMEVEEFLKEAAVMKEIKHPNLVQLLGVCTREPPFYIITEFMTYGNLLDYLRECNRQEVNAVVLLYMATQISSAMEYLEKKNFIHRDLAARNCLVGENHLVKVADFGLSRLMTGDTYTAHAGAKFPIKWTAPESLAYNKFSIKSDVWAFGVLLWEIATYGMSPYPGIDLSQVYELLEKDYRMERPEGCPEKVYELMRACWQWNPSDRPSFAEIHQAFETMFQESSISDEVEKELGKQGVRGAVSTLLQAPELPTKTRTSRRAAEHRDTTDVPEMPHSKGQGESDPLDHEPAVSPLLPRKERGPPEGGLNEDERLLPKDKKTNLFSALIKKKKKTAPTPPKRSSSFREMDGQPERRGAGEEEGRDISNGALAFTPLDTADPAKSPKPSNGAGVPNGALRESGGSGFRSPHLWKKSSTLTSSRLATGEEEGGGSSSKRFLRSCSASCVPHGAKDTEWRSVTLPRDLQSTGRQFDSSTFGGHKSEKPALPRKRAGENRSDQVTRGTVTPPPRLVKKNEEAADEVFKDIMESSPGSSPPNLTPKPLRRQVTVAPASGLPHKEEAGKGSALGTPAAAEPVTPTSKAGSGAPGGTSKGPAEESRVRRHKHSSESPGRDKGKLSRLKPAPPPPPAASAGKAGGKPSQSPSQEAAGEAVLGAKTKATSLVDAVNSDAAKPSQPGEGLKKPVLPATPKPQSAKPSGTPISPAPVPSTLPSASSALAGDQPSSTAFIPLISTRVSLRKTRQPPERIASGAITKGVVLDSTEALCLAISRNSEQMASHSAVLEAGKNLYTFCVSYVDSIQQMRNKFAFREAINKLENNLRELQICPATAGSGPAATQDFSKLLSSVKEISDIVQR
T1 sequence (P07948 whole entry): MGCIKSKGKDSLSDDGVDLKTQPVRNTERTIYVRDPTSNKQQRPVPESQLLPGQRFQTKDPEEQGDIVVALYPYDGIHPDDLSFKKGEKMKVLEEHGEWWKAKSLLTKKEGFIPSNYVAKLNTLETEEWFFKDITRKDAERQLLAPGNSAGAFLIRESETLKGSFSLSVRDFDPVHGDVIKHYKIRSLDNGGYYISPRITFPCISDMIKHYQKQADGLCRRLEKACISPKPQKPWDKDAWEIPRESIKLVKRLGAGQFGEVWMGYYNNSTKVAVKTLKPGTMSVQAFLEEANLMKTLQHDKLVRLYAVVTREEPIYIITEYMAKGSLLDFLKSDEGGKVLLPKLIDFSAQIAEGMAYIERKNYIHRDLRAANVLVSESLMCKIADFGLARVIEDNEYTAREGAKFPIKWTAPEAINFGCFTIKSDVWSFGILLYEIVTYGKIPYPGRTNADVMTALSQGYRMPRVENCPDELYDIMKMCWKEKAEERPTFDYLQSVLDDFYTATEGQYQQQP
T27 sequence (P35968 20-1356): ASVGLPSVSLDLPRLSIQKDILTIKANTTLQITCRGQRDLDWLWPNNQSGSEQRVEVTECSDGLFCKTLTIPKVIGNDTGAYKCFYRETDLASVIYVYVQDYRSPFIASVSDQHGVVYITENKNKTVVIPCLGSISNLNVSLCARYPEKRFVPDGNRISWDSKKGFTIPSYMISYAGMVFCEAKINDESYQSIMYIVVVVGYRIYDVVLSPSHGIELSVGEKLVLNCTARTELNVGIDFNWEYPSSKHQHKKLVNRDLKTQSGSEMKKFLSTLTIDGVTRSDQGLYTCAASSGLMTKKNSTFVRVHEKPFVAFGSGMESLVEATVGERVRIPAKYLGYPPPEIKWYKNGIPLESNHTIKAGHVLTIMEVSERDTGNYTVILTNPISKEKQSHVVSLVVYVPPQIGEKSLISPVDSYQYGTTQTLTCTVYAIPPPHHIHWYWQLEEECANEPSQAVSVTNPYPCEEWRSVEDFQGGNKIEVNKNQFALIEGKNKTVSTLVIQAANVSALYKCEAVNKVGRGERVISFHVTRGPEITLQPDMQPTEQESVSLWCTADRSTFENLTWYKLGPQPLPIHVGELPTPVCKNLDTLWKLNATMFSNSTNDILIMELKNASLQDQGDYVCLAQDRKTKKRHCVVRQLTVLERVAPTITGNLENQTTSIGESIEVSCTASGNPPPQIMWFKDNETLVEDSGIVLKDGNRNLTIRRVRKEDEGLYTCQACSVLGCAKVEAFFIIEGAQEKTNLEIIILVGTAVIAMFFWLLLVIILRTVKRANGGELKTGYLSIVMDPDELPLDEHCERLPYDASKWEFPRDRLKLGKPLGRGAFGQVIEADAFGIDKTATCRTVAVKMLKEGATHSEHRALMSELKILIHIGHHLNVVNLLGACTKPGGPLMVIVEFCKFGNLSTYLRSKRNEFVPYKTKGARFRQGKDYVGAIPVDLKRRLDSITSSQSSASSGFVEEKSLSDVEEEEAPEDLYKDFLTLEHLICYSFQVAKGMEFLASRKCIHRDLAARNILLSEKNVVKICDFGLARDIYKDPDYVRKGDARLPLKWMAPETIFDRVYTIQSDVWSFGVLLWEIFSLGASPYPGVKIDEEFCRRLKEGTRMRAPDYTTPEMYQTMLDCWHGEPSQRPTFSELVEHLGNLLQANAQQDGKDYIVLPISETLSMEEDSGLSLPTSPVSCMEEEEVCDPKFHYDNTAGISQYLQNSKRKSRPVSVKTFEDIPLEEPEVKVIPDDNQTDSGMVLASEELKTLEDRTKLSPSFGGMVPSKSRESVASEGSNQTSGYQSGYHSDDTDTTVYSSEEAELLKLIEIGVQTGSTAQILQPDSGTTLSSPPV
T18 sequence (Q14164 whole entry): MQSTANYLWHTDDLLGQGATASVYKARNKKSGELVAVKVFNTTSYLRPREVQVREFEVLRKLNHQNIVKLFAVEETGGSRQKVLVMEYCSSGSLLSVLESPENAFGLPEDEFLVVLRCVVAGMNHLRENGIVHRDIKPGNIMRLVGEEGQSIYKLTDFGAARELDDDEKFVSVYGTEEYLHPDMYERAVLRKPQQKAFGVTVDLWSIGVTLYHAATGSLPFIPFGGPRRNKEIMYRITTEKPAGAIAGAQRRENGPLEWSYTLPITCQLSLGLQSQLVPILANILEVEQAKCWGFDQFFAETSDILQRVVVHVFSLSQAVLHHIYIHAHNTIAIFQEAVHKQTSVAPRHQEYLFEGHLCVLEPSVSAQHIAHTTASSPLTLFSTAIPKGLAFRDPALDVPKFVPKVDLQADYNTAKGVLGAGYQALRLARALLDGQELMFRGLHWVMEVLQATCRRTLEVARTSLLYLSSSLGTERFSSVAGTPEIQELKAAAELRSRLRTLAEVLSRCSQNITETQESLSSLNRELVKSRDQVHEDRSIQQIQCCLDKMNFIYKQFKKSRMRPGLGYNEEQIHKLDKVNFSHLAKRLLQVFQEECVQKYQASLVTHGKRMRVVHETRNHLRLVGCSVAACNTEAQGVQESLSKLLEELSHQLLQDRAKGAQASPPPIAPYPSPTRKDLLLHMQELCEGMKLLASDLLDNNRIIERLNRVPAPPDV
T6 sequence (Q13177 whole entry): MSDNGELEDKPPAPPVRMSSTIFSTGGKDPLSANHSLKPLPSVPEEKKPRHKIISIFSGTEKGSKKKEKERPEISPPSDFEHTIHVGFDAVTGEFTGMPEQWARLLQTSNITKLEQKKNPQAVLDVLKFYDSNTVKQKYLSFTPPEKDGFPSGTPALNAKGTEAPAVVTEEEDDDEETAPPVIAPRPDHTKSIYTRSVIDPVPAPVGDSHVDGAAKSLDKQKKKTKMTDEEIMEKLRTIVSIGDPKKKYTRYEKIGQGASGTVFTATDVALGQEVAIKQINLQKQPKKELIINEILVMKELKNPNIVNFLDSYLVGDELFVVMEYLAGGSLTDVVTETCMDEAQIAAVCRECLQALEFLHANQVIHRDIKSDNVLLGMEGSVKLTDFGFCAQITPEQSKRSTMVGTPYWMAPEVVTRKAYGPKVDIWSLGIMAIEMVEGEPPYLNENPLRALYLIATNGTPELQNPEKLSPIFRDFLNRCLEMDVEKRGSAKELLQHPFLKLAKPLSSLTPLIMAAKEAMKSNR

For `c1cc(-c2ccc3nccc(Nc4ccc5scnc5c4)c3c2)ccn1` [Compound 14, N-(6-(pyridin-4-yl)quinolin-4-yl)benzo[d]thiazol-5-amine], which “Remaining Lyn kinase activity (% of control)” value ([1]; 1 µM) is on record?
The value was 3.

And the inhibition at 1 µM ([1]; at 1 µM)?
The inhibition at 1 µM was > 90%.

And the “CDK2/cyclinA remaining activity (%) with compound 14 at 1 µM” value [2]?
Its value is 78.

And the “% remaining SAPK2a activity with compound 14 at 1 µM” value [3]?
The value was 54.

What about the “CHK1 remaining activity (% of control) at 1 µM” value [4] of the same molecule?
Its value is 100.

What about the “ASK1 remaining activity (% of control) with compound 14 at 1 µM” value [5] of the same molecule?
The value was 87.

What about the “percent remaining kinase activity” value [6] of the same molecule?
Its value is 100.

And the “remaining kinase activity (%)” value [7]?
Its value is 93.

What about the “MSK2 remaining kinase activity (% of control) with compound 14 at 1 µM” value [8] of the same molecule?
Its value is 107.

What about the “Remaining kinase activity (% of control)” value [9] of the same molecule?
The value was 121.

And the “RIPK1 IR@1µM (%)” value [10]?
The value was <1%.

And the “EphB4 remaining activity (%) with compound 14 at 1 µM” value [11]?
Its value is 96.

And the “percent remaining kinase activity” value [12]?
Its value is 81.

What about the “Remaining kinase activity (% of control)” value [13] of the same molecule?
Its value is 93.

And the “remaining BTK activity (% of control)” value ([14]; 1 µM)?
Its value is 4.

What about the inhibition at 1 µM ([14]; at 1 µM) of the same molecule?
Its inhibition at 1 µM is > 90%.

What about the “Rsk1 kinase activity remaining (% of control)” value [15] of the same molecule?
The value was 98.

And the “% remaining mTOR activity with compound 14 at 1 µM” value [16]?
Its value is 106.

What about the “Abl remaining activity (% of control)” value ([17]; 1 µM) of the same molecule?
The value was 9.

And the inhibition at 1 µM ([17]; at 1 µM)?
The inhibition at 1 µM was > 90%.

And the “Remaining IKKε activity at 1 µM (% of control)” value [18]?
The value was 106.

What about the “Remaining kinase activity (% of control)” value [19] of the same molecule?
Its value is 90.

And the “Remaining MLK1 activity (%) with compound 14 at 1 µM” value [20]?
The value was 89.

What about the “MST1 kinase activity remaining with compound 14 at 1 µM (% of control)” value [21] of the same molecule?
Its value is 105.

What about the “Mnk2 remaining activity (% of control) with compound 14 at 1 µM” value [22] of the same molecule?
The value was 68.

And the “Remaining kinase activity (% of control) at 1 µM compound 14” value [23]?
The value was 95.

What about the “TBK1 remaining activity (%) with compound 14 at 1 µM” value [24] of the same molecule?
Its value is 97.

And the “Remaining kinase activity (%) at 1 µM” value [25]?
Its value is 100.

And the AO oxidase substrate [26]?
Its AO oxidase substrate is “metabolic substrates of AO oxidase”.

And the “KDR(h), 14 @ 1 µM” value ([27]; 1 µM)?
Its value is 11.

What about the inhibition at 1 µM ([27]; at 1 µM) of the same molecule?
The inhibition at 1 µM was 50 to 90%.

And the “CDK1/cyclinB remaining activity (% of control) with compound 14 at 1 µM” value [28]?
The value was 90.

— article PMC9683047, “Design, synthesis and biological evaluation of 4-aminoquinoline derivatives as receptor-interacting protein kinase 2 (RIPK2) inhibitors” (Journal of Enzyme Inhibition and Medicinal Chemistry, 2022)
